Data taken from article PMC12864978, “Covalent modification of a glutamic acid inspired by HaloTag technology” (Nature Communications, 2026).

Legend:
[1] = system: Rheb localisation in PA-TU-8902 cells; test: Immunofluorescence staining of Rheb; assay type: cell-based, human; conditions: 5 µM, overnight
Description: Immunostaining: compound-treated PA-TU-8902 cells were washed once with cold PBS, fixed with 3.7% paraformaldehyde in PBS by incubation at room temperature for 10 min and permeabilised with 0.3% Triton X-100 in PBS by incubation at room temperature for 15 min. […] After washing with PBS-T three times, PBS-incubated cells were imaged with Observer Z1 (Carl Zeiss, Germany) with a 63× oil objective.

[2] = molecular target: Jurkat cell lysate proteome (Homo sapiens, UniProt P37802); test: In-lysate thermal proteome profiling (TPP)
[3] = molecular target: Jurkat cell lysate proteome (Homo sapiens, UniProt Q14108); test: In-lysate thermal proteome profiling (TPP)
[4] = molecular target: Jurkat cell lysate proteome (Homo sapiens, UniProt P62899); test: In-lysate thermal proteome profiling (TPP)
[5] = molecular target: Jurkat cell lysate proteome (Homo sapiens, UniProt Q15382); test: In-lysate thermal proteome profiling (TPP); conditions: 10 µM, 15 min
[6] = molecular target: Jurkat cell lysate proteome (Homo sapiens, UniProt Q9UHA4); test: In-lysate thermal proteome profiling (TPP)
[7] = molecular target: Jurkat cell lysate proteome (Homo sapiens, UniProt P56134); test: In-lysate thermal proteome profiling (TPP)
[8] = molecular target: Jurkat cell lysate proteome (Homo sapiens, UniProt P49773); test: In-lysate thermal proteome profiling (TPP)
[9] = molecular target: T1, Jurkat cell lysate proteome (Homo sapiens, UniProt Q16854); test: In-lysate thermal proteome profiling (TPP)
T1 sequence (Q16854 40-277): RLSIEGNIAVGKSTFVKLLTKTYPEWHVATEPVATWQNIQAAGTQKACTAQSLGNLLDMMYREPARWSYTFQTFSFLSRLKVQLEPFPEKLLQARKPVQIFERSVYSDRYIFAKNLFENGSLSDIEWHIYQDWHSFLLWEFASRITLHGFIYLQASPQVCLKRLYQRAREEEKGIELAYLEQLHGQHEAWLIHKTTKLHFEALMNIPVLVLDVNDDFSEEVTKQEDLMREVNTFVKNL

[10] = molecular target: Jurkat cell lysate proteome (Homo sapiens, UniProt O75044); test: In-lysate thermal proteome profiling (TPP)
[11] = molecular target: Jurkat cell lysate proteome (Homo sapiens, UniProt P62318); test: In-lysate thermal proteome profiling (TPP)
[12] = molecular target: Jurkat cell lysate proteome (Homo sapiens, UniProt Q9H583); test: In-lysate thermal proteome profiling (TPP)
[13] = molecular target: T2, PDEδ in the presence of Arl2•GppNHp (Homo sapiens, UniProt O43924); test: Competitive fluorescence polarisation assay in the presence of Arl2•GppNHp; assay type: binding
T2 construct: His tag; made in house; host or cells: Escherichia coli Rosetta (BL21DE3), pET plasmids
Text: Data are presented as mean ± s.e.m.

[14] = molecular target: PDEδ (Homo sapiens, UniProt O43924); test: In-cell covalent modification of PDEδ (immunoblot); conditions: 2 h
[15] = 10 µM, 15 min, listed as DeltaTag

Compound: Cc1ccc(-n2nc3c(=O)n(CCCCS(=O)(=O)N(CCc4cccc(CCBr)c4)CC4CCNCC4)nc(C)c3c2C)cc1 [6a]
- cellular Rheb distribution [1]: visible and sustained redistribution of Rheb to endomembranes
- ΔAUC TAGLN2 ([2]; 10 µM, 15 min): 1.4
- ΔI67°C TAGLN2 ([2]; 10 µM, 15 min): -5 ± 9%
- ΔTm at 10 µM ([2]; read-out: ΔTm TAGLN2, 10 µM, 15 min): 2.8 ± 0.7 °C
- ΔI67°C SCARB2 ([3]; 10 µM, 15 min): -14 ± 4%
- ΔTm at 10 µM ([3]; read-out: ΔTm SCARB2, 10 µM, 15 min): 0.7 ± 2.1 °C
- ΔAUC RPL31 ([4]; 10 µM, 15 min): -2.5
- ΔI67°C RPL31 ([4]; 10 µM, 15 min): -6 ± 5%
- ΔTm at 10 µM ([4]; read-out: ΔTm RPL31, 10 µM, 15 min): -2.1 ± 0.6 °C
- ΔAUC RHEB [5]: -1.5
- ΔI67°C RHEB [5]: -6 ± 8%
- ΔTm RHEB [5]: -0.9 ± 0.8 °C
- ΔAUC RHEB ([5]; listed as DeltaTag): −1.5
- ΔTm RHEB ([5]; listed as DeltaTag): −0.89 °C
- ΔAUC LAMTOR3 ([6]; 10 µM, 15 min): -2.1
- ΔI67°C LAMTOR3 ([6]; 10 µM, 15 min): -3 ± 2%
- ΔAUC LAMTOR3 [6, 15]: −2.1
- ΔTm at 10 µM ([6]; read-out: ΔTm LAMTOR3, 10 µM, 15 min): -2.6 ± 1.4 °C
- ΔI67°C ATP5J2 ([7]; 10 µM, 15 min): 1 ± 1%
- ΔTm at 10 µM ([7]; read-out: ΔTm ATP5J2, 10 µM, 15 min): -2 ± 1 °C
- ΔAUC HINT1 ([8]; 10 µM, 15 min): 3.6
- ΔI67°C HINT1 ([8]; 10 µM, 15 min): 3 ± 6%
- ΔTm at 10 µM ([8]; read-out: ΔTm HINT1, 10 µM, 15 min): 4 ± 1.4 °C
- ΔAUC DGUOK ([9]; 10 µM, 15 min): -2.3
- ΔI67°C DGUOK ([9]; 10 µM, 15 min): 0 ± 2%
- ΔTm at 10 µM ([9]; read-out: ΔTm DGUOK, 10 µM, 15 min): -2.9 ± 1.9 °C
- ΔAUC SRGAP2 ([10]; 10 µM, 15 min): -2.5
- ΔI67°C SRGAP2 ([10]; 10 µM, 15 min): -10 ± 7%
- ΔAUC SRGAP2 [10, 15]: −2.5
- ΔTm at 10 µM ([10]; read-out: ΔTm SRGAP2, 10 µM, 15 min): -1.3 ± 1.1 °C
- ΔAUC SNRPD3 ([11]; 10 µM, 15 min): -2
- ΔI67°C SNRPD3 ([11]; 10 µM, 15 min): -9 ± 11%
- ΔTm at 10 µM ([11]; read-out: ΔTm SNRPD3, 10 µM, 15 min): 0.8 ± 0.7 °C
- ΔAUC HEATR1 ([12]; 10 µM, 15 min): -2.9
- ΔI67°C HEATR1 ([12]; 10 µM, 15 min): -8 ± 6%
- ΔTm at 10 µM ([12]; read-out: ΔTm HEATR1, 10 µM, 15 min): -2.8 ± 1.1 °C
- IC50 ([13]; 37 °C, PDEδ 40 nM, Arl2•GppNHp 40 nM, FA probe 24 nM): 10.1 ± 2.6 nM
- IC50 ([13]; pre-incubated with PDEδ at 37 °C overnight before addition of Arl2•GppNHp): 4.8 ± 1.5 nM
- in-cell covalent modification of PDEδ [14]: covalent binding of DeltaTag (6a) to PDEδ within 2 h
